Positions count from the first letter of the chain named.
What was measured:
[1] = biological target: T1, human neuronal glycine receptor α1 (Homo sapiens, UniProt P23415); test: Two-electrode voltage clamp of glycine-evoked current; type: cell-based
T1 sequence (P23415 29-457): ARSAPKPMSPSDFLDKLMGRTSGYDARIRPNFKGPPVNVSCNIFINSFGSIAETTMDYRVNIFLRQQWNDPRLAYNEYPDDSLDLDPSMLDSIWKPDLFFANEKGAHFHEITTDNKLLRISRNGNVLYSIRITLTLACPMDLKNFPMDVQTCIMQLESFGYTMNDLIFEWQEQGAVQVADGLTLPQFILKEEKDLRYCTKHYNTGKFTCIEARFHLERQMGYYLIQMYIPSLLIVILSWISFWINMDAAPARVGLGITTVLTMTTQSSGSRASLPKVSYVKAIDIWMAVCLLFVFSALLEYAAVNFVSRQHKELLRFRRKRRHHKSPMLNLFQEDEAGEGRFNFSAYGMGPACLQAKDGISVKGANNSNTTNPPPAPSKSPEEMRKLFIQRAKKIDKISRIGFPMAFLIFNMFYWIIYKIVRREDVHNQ

[2] = biological target: T2, glycine receptor α1 F124A + D130A (Homo sapiens, UniProt P23415, D142A/F136A); type: cell-based; details: double mutant α1 F124A and D130A
T2 sequence (P23415 29-457 F136A/D142A): T1 sequence (P23415 29-457) with F108A, D114A

[3] = cited from earlier work
5-HT3a = biological target: T3, 5-HT3a (Homo sapiens, UniProt P46098); test: Interaction with ligand-gated channel 5-HT3a
T3 sequence (P46098 24-478): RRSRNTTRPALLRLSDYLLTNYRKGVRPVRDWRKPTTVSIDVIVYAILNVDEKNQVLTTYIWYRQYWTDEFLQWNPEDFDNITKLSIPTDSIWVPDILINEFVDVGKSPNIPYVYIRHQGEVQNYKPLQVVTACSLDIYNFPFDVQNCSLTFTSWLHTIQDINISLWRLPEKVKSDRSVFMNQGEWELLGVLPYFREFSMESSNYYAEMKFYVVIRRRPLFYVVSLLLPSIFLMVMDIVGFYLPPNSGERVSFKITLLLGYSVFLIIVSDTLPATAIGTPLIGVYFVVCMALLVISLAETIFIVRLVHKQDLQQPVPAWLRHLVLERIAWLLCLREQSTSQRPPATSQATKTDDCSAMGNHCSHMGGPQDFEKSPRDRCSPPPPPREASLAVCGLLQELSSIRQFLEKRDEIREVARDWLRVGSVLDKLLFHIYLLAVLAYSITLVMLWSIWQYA

[4] = biological target: T4, glycine receptor α1 D130A (Homo sapiens, UniProt P23415, D142A); type: cell-based
T4 sequence (P23415 29-457 D142A): T1 sequence (P23415 29-457) with D114A

[5] = biological target: T5, glycine receptor α1 F124A (Homo sapiens, UniProt P23415, F136A); type: cell-based
T5 sequence (P23415 29-457 F136A): T1 sequence (P23415 29-457) with F108A

[6] = glycine concentration-response in presence of 10 µM EG
[7] = glycine concentration-response in presence of 100 µM EG

NCC(=O)O [glycine]
nH (Hill's coefficient) of glycine-induced current ([1]; Control, absence of ergotamine): 1.1 ± 0.3
Imax (maximum response) of glycine-induced current ([1]; Control, absence of ergotamine, glycine 0.3 to 100 µM, −80 mV): 99.6 ± 2.4

CN1C[C@H](C(=O)N[C@]2(C)O[C@@]3(O)[C@@H]4CCCN4C(=O)[C@H](Cc4ccccc4)N3C2=O)C=C2c3cccc4[nH]cc(c34)C[C@H]21 [ergotamine]
IC50 [1]: 5.7 ± 0.7 µM
reversal potential ([1]; application of ergotamine and glycine or glycine alone, voltage ramp −100 to +60 mV): approximately 0 mV
inhibition of IGly in voltage ramp ([1]; ergotamine 10 µM + 100 µM glycine, at +60 mV): 42.3 ± 6.2%
inhibition of IGly in voltage ramp ([1]; ergotamine 10 µM + 100 µM glycine, at −100 mV): 39.9 ± 4.8%
inhibition of IGly in voltage ramp ([1]; ergotamine 100 µM + 100 µM glycine, at +60 mV): 74.6 ± 5.4%
inhibition of IGly in voltage ramp ([1]; ergotamine 100 µM + 100 µM glycine, at −100 mV): 71.9 ± 4.1%
voltage dependence of inhibition (current-voltage relationship) ([1]; ergotamine 10 or 100 µM + 100 µM glycine, ramps −100 to +60 mV): voltage insensitive
reversibility of inhibition of IGly ([1]; ergotamine and glycine co-application, washout): reversible
relation between glycine and ergotamine (competition test) ([1]; glycine 0–100 µM with or without ergotamine 10 or 100 µM): non-competitive
Imax (maximum response) of glycine-induced current [1, 6]: 53.9 ± 2.3
nH (Hill's coefficient) of glycine-induced current [1, 6]: 1.2 ± 0.2
Imax (maximum response) of glycine-induced current [1, 7]: 31.7 ± 0.5
nH (Hill's coefficient) of glycine-induced current [1, 7]: 0.9 ± 0.2
effect on desensitization ([1]; prolonged glycine application): did not alter desensitization kinetics or induce desensitization
inhibition at 10 µM ([1]; read-out: inhibition of the current stimulated by 100 µM glycine): 59.8 ± 2.9%
effect of ergotamine alone on IGly ([1]; various concentrations of ergotamine without glycine, holding potential −80 mV): no effect
nH (Hill's coefficient) ([1]; α1 wild): 1.2 ± 0.2
Imax (maximum response) of ergotamine inhibition of glycine-evoked current ([1]; α1 wild, 100 µM glycine, −80 mV): 91.5 ± 2.2
Hill coefficient [2]: 1.9 ± 0.6
penetration across the blood-brain barrier [3]: relatively poor penetration
interaction with 5-HT3a (5-HT3a): does not interact
IC50 [4]: 28.1 ± 9.7 µM
Imax (maximum response) of ergotamine inhibition of glycine-evoked current ([4]; α1 D130A): 32.1 ± 8.8
nH (Hill's coefficient) ([4]; α1 D130A): 1.1 ± 0.3
IC50 [5]: 25.7 ± 2.9 µM
Imax (maximum response) of ergotamine inhibition of glycine-evoked current ([5]; α1 F124A): 42.4 ± 1.5
nH (Hill's coefficient) ([5]; α1 F124A): 1.3 ± 0.1

Source: publication PMC11981762 (Computational and Structural Biotechnology Journal, 2025)
